Calls of active or inactive are those of the source.
What was measured:
[1] = target: Ras and Rab interactor 1/Tyrosine-protein kinase ABL1 (Homo sapiens, UniProt P00519+Q13671); format: functional;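 note: biochemical TR-FRET dose-response test measuring inhibition of binding between Rin1 and Abl proteins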
Insulin-degrading enzyme [2] = target: T1, Insulin-degrading enzyme (Homo sapiens, UniProt P14735); assay: recombinant IDE activation, cell-free – biochemical, fluorescence polarization, counter-screen for IDE activator project, dose response (AID 588681)
T1 sequence (P14735 whole entry): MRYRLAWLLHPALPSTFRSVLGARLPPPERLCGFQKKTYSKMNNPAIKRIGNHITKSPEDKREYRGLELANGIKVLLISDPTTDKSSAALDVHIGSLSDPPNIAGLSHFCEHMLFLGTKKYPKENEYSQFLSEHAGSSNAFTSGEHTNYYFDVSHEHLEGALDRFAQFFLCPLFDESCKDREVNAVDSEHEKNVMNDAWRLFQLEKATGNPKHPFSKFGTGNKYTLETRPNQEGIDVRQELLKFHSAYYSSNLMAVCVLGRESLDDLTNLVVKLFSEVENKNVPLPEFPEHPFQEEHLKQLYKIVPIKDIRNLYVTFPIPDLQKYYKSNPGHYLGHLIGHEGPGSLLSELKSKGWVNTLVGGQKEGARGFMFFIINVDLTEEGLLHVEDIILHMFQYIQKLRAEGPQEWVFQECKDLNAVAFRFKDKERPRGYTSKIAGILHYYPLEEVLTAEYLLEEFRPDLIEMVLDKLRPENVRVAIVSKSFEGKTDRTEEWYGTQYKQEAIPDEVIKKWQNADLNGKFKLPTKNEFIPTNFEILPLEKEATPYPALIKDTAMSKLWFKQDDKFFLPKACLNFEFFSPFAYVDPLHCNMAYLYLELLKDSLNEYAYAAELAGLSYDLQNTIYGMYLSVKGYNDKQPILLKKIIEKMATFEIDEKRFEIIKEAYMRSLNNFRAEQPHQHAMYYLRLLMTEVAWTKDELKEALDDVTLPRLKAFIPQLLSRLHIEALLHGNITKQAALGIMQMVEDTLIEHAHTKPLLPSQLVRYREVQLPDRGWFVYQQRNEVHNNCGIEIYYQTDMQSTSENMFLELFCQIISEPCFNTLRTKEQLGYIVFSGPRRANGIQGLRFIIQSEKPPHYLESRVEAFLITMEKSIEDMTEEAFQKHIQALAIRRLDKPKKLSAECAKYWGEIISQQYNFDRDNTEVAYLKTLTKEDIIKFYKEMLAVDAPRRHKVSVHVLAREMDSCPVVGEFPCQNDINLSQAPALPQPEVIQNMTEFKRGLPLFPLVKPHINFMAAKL

Insulin-degrading enzyme [3] = target: T1, Insulin-degrading enzyme; assay: cellular IDE activation of Abeta substrate cleavage – fluorescence polarization, HEK cells, dose response (AID 588439); format: functional, cell-based
HEK293 [4] = assay: membrane integrity loss in HEK cells – cell-based, fluorescence, cytotoxicity control for IDE activator project, dose response (AID 588440); format: functional; conditions: Homo sapiens;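 note: cytotoxicity by LDH release measuring loss of membrane integrity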
HEK293 [5] = assay: optical interference in Abeta FP readout, dose response, artefact control for IDE activator project, biochemical, fluorescence polarization (AID 588442); format: functional, cell-based; conditions: Homo sapiens
Cytochrome P450 2D6 = Cytochrome P450 2D6 (Homo sapiens, UniProt P10635);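 note: CYP2D6 member of a cytochrome P450 panel assay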
Cytochrome P450 3A4 = Cytochrome P450 3A4 (Homo sapiens, UniProt P08684);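 note: CYP3A4 tested as one member of a cytochrome P450 panel screen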
Cytochrome P450 2C9 = Cytochrome P450 2C9 (Homo sapiens, UniProt P11712)
[6] = A Cell Based Secondary Assay To Explore Cytotoxicity of Compounds that Sensitize Mycobacterium Tuberculosis to Beta-Lactam Antibiotics.; format: functional
[7] = target: ADP-ribosylation factor GTPase-activating protein 1 (Rattus norvegicus, UniProt Q62848); assay: Fluorescence polarization-based biochemical high throughput dose response screening assay to identify inhibitors of ADP-ribosylation factor GTPase activating protein 1 (ARFGAP1).; format: functional
Nonstructural protein 1 = Nonstructural protein 1 (Influenza A virus, UniProt Q194T2); format: functional, Influenza A virus (A/California/07/2009(H1N1))
[8] = target: T2, Microphthalmia-associated transcription factor (Homo sapiens, UniProt O75030); assay: reducers of TRPM1 reporter luminescence, concentration series – cell-based, SK-MEL-5, cherry-picked, set 3, MITF inhibitor project, dose response (AID 493073); format: functional;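 note: SK-MEL-5 melanoma cells with luciferase driven by the MITF target TRPM1 promoter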
T2 sequence (O75030 whole entry): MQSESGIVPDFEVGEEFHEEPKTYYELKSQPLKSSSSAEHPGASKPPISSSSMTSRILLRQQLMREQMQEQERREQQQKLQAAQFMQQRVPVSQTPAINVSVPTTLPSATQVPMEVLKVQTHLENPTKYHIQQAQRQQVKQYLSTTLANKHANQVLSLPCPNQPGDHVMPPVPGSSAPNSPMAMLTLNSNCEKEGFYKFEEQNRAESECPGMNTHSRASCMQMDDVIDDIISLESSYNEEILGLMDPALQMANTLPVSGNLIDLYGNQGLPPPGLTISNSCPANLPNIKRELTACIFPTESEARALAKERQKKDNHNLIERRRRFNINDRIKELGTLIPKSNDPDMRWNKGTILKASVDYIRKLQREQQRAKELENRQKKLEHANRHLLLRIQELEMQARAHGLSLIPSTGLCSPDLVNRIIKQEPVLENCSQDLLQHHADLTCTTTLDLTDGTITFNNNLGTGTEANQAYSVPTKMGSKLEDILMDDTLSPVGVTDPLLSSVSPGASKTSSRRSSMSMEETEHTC

[9] = cytotoxicity toward MDA-MB-231 breast cancer cells – cell-based, CellTiter-Glo luminescence, cherry-pick, cytotoxicity control for RAD54 inhibitor project, dose response (AID 651692); format: functional
[10] = target: T3, DNA repair and recombination protein RAD54-like (Homo sapiens, UniProt Q92698); assay: RAD54 Holliday junction migration blockers – biochemical, fluorescence, cherry-picked samples, dose series, confirmation (AID 651657); format: functional
T3 sequence (Q92698 whole entry): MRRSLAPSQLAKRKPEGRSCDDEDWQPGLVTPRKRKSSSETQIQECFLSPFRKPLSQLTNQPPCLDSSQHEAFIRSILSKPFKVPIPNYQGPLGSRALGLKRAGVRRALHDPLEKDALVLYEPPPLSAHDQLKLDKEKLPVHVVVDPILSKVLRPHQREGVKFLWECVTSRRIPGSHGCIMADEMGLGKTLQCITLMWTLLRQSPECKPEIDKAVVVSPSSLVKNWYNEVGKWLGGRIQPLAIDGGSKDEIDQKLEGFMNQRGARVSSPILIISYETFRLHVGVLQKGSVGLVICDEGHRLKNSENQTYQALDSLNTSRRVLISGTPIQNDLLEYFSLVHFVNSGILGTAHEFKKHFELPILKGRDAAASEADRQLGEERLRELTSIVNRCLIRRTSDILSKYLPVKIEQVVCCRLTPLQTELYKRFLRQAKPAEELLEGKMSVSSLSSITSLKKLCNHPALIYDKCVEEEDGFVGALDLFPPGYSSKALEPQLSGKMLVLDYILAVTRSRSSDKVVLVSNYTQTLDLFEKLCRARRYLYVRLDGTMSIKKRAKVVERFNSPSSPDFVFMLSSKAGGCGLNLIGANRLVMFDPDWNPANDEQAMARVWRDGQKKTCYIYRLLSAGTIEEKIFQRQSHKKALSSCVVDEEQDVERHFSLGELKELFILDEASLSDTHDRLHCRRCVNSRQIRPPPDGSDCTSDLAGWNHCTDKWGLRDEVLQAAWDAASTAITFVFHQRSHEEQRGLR

[11] = target: T4, DNA repair protein RAD52 homolog (Homo sapiens, UniProt P43351); format: functional, biochemical
T4 sequence (P43351 whole entry): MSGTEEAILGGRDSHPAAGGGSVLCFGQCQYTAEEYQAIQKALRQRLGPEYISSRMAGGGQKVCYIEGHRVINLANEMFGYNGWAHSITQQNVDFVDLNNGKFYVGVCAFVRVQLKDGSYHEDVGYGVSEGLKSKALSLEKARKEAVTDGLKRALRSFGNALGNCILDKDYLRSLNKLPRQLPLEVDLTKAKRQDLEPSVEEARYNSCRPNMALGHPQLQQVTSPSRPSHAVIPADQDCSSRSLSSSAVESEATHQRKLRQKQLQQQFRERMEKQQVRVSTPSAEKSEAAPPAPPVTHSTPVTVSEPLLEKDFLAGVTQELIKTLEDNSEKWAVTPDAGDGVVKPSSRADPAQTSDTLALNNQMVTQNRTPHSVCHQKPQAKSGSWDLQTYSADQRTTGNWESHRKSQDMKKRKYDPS

[12] = target: Low molecular weight phosphotyrosine protein phosphatase (Homo sapiens, UniProt P24666); format: functional; conditions: read-out: IC50_Mean;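 note: Dose-response confirmation assay measuring inhibition of LMPTP enzyme activity by fluorescence intensity read-out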
[13] = Vero cell cytotoxicity, cytotoxicity control for M. tuberculosis inhibitor project, purified and synthesized samples, set 3 (AID 504684); format: functional
[14] = target: T5, ATP-dependent translocase ABCB1 (Homo sapiens, UniProt P08183); assay: inhibition of BCRP-mediated JC-1 efflux – Ig-MXP3 cells, flow cytometry, set 2, dose response (AID 504566); format: functional; conditions: read-out: EC50_MICROM_;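 note: flow cytometry median green fluorescence of retained JC-1 dye; potency of efflux pump inhibition measured as rising substrate retention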
[15] = target: T5, ATP-dependent translocase ABCB1; assay: P-gp JC-1 efflux blockade concentration-response – Jurkat-DNR cells, flow cytometry, set 2, dose response (AID 504569); format: functional; conditions: read-out: EC50_MICROM_;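 note: potency of pump inhibitors that raise cellular JC-1 green fluorescence up to the nicardipine level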
[16] = target: Luciferin 4-monooxygenase (Photinus pyralis, UniProt P08659); assay: inhibition of purified Photinus pyralis luciferase – biochemical, luminescence, dose response (AID 1891)
[17] = Luminescence Cell-Based Dose Confirmation HTS to Identify Inhibitors of Platelet Dense Granule Release. [Related pubchem assays: 1663 (Primary HTS), 1678 (Summary of Project)]; format: functional
[18] = inhibition of ARNT PAS-B/TACC3 complex formation – biochemical, AlphaScreen, cherry-picked samples, confirmation (AID 651703); format: functional, Homo sapiens;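 note: His-tagged ARNT PAS-B domain paired with GST-TACC3 E629A dimer coactivator fragment; potency of inhibitors that break up the complex and lower AlphaScreen signal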

T5 sequence (P08183 whole entry): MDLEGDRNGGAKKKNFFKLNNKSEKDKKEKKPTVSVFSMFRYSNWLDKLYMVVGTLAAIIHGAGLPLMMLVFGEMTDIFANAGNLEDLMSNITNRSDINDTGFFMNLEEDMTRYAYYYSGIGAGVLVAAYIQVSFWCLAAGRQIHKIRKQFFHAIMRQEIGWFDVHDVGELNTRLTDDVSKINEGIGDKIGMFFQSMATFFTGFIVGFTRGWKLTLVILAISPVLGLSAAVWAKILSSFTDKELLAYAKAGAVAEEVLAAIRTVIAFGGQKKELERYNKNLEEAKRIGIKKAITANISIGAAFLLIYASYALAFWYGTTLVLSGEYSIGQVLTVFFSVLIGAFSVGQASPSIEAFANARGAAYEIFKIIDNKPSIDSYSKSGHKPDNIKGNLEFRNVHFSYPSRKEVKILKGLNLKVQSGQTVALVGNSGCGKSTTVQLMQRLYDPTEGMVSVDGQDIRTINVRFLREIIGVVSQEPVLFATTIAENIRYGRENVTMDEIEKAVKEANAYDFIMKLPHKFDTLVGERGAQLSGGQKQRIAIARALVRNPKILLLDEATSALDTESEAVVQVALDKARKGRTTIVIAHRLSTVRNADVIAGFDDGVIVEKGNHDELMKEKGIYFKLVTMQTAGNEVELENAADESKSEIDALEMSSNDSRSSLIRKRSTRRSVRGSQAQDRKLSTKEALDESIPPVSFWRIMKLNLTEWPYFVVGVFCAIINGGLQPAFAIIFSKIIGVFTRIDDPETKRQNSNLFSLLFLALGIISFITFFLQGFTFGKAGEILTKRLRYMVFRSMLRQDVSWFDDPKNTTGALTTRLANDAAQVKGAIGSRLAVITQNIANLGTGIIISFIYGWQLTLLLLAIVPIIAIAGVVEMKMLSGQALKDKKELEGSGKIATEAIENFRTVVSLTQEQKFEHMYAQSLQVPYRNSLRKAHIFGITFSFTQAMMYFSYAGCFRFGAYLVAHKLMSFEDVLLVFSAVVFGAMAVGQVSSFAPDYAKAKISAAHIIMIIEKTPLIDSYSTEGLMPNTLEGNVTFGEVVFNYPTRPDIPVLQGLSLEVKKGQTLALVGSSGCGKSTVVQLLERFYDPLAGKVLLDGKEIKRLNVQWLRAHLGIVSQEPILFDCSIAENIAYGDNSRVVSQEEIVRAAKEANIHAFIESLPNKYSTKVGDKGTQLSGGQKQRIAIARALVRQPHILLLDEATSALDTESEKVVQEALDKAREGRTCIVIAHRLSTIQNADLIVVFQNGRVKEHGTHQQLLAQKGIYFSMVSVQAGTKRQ
Chain of Cytochrome P450 3A4 (P08684 whole entry): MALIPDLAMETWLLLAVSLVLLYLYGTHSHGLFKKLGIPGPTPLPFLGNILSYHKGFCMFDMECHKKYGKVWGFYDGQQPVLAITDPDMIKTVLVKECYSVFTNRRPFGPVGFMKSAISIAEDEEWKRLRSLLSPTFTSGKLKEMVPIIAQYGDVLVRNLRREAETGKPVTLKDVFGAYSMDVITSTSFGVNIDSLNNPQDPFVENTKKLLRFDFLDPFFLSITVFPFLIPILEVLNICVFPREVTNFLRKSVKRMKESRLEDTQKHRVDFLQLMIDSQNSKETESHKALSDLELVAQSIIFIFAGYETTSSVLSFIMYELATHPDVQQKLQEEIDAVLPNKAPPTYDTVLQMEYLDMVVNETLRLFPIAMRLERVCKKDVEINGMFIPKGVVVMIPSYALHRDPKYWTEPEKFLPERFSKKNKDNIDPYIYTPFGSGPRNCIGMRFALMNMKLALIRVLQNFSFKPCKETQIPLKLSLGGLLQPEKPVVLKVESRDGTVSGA
Chain of ADP-ribosylation factor GTPase-activating protein 1 (Q62848 whole entry): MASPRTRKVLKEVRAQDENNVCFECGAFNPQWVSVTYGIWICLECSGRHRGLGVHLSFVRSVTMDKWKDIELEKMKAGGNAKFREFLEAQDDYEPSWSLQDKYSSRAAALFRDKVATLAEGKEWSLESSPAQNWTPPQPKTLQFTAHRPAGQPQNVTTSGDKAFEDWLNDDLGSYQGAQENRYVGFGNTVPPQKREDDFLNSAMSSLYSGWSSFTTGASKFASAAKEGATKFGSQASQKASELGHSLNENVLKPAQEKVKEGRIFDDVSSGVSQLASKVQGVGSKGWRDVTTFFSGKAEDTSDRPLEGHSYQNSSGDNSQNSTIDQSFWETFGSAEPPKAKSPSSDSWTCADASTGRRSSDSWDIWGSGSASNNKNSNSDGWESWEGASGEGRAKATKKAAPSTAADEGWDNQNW
Chain of Cytochrome P450 2C9 (P11712 whole entry): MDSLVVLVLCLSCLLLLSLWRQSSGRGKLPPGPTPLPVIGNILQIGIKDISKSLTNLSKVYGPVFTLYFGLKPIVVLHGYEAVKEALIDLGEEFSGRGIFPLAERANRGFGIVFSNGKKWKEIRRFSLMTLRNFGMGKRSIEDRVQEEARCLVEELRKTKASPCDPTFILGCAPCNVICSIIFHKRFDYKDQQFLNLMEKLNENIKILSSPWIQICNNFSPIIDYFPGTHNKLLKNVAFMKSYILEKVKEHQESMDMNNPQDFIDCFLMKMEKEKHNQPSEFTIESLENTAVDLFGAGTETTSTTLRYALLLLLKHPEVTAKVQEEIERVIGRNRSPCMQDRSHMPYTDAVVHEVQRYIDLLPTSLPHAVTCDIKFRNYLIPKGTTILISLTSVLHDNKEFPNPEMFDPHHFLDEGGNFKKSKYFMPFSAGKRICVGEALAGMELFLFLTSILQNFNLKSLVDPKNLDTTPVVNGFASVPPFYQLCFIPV
Chain of Ras and Rab interactor 1/Tyrosine-protein kinase ABL1 (P00519 whole entry): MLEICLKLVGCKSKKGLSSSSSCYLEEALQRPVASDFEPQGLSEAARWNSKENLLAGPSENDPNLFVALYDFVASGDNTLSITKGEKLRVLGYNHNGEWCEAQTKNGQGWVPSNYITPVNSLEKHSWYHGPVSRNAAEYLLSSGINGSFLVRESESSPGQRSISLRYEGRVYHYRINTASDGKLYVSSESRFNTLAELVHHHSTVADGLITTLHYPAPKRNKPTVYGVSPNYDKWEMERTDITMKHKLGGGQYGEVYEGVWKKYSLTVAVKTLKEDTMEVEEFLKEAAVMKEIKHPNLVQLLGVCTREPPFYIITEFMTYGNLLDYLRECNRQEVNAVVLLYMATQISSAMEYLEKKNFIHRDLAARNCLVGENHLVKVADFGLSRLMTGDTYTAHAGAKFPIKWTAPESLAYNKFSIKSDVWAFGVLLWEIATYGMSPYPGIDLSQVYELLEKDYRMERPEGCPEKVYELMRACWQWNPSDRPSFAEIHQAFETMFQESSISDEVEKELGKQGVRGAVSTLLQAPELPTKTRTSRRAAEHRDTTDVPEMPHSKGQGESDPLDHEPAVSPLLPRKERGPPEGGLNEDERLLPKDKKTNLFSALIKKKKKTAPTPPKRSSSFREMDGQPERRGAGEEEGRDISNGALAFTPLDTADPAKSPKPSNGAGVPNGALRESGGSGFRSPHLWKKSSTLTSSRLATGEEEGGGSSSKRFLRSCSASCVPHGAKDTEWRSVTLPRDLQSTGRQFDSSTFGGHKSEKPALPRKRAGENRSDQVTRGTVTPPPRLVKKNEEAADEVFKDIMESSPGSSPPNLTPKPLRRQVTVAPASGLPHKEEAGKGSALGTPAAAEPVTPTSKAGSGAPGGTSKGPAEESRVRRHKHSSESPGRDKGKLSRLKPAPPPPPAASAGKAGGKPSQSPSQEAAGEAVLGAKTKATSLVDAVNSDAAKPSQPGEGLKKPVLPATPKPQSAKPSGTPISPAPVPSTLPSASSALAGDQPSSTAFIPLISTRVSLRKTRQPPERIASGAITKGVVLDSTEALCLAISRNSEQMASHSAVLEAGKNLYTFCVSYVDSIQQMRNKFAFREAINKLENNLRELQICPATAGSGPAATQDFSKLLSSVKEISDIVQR
Chain of Ras and Rab interactor 1/Tyrosine-protein kinase ABL1 (Q13671 whole entry): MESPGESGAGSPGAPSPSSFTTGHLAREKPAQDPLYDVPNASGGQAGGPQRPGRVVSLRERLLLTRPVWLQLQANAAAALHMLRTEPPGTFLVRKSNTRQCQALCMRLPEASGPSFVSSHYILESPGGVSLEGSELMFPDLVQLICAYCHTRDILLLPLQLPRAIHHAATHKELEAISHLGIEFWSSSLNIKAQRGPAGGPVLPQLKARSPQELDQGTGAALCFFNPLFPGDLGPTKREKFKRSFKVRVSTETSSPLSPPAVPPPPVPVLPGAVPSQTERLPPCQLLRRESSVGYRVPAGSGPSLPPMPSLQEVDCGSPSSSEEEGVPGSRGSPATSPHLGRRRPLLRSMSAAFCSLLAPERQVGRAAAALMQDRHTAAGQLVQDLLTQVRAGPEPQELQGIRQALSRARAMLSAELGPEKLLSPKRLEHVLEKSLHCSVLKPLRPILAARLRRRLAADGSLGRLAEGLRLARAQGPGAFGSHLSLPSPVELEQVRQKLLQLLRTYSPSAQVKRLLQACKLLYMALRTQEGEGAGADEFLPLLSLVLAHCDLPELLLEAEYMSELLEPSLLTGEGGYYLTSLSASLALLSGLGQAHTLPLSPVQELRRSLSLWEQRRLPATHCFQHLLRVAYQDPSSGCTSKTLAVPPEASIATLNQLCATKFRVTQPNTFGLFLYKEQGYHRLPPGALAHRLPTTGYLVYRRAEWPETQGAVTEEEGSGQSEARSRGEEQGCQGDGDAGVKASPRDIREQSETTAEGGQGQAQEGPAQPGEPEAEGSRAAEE
Chain of Nonstructural protein 1 (Q194T2 whole entry): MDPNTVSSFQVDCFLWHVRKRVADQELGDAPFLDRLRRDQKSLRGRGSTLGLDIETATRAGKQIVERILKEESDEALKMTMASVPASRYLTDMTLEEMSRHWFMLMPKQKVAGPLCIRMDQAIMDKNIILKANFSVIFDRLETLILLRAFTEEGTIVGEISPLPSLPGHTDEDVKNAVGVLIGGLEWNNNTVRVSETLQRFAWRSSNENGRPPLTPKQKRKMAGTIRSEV
Chain of Low molecular weight phosphotyrosine protein phosphatase (P24666 whole entry): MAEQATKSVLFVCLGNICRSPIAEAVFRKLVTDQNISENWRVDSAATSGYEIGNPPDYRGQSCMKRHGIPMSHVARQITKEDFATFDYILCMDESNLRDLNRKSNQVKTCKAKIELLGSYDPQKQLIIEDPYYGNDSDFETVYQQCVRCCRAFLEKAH

CCOC(=O)c1ccc(NC(=O)COc2ccccc2CNC2CCCC2)cc1
IC50 [1]: 12.2 µM (inactive)

CCCCn1nc2cc(C(=O)NCCCCc3ccccc3)ccc2c1OCC
EC50 (Insulin-degrading enzyme [2]): > 54.7 µM (inactive)
EC50 (Insulin-degrading enzyme [3]): 22.8 µM (inactive)
IC50 (HEK293 [4]): > 89.2 µM (inactive)
EC50 (HEK293 [5]): > 54.7 µM (inactive)
AC50 (Cytochrome P450 2D6): 3.98 µM (inconclusive)
AC50 (Cytochrome P450 3A4): 6.31 µM (inconclusive)
AC50 (Cytochrome P450 2C9): 31.6 µM (inconclusive)

Cc1cccc(NC(=O)Cn2cnc3c(oc4ccccc43)c2=O)c1C
CC50 [6]: > 40 µM (active)
IC50 [7]: 28.7 µM (inactive)

CCN1CCCC1CNC(=O)c1ccc2c(c1)NC(=O)/C(=C\c1ccc(OC)c(OC)c1)S2 (stereo unspecified)
IC50 (Nonstructural protein 1): 81.9 µM (active)
AC50 [8]: 13.8 µM (active)
AC50 [9]: 36.4 µM (active)
AC50 [10]: 12.6 µM (active)
AC50 [11]: 3.24 µM (active)

O=C(COc1ccccc1)Nc1sc2c(c1C(=O)NCc1cccnc1)CCCC2
IC50 [12]: 21.3 µM (inactive)

O=c1[nH]c(S)nc2ccccc12
CC50 [13]: > 100 µM (active)

Cc1cccc(C(=O)NCCN2CCOCC2)c1[N+](=O)[O-]
EC50 (Insulin-degrading enzyme [2]): > 54.6 µM (inactive)
EC50 (Insulin-degrading enzyme [3]): > 54.6 µM (inactive)
IC50 (HEK293 [4]): > 89.1 µM (inactive)
EC50 (HEK293 [5]): > 54.6 µM (inactive)

O=C(c1ccccc1)N1CCN(c2cc(-c3ccccc3)nc3cc(-c4ccc(F)cc4)nn23)CC1
EC50 [14]: 2.35 µM (active)
EC50 [15]: 5.63 µM (active)

CCOc1ccc(Nc2cc3n(c(=O)n2)CCc2cc(OC)c(OC)cc2-3)cc1
EC50 [16]: > 112 µM (not active)
EC50 [17]: 12.5 µM (active)
AC50 [18]: 102 µM (active)

From ChEMBL document CHEMBL1201862, “PubChem BioAssay data set” (2004)
